Biological target: T1, hCaSR-ECD (Homo sapiens, UniProt P41180)
T1 construct: made in house; host or cells: HEK293S (GnTI-) suspension culture, secreted
T1 sequence (P41180 20-612): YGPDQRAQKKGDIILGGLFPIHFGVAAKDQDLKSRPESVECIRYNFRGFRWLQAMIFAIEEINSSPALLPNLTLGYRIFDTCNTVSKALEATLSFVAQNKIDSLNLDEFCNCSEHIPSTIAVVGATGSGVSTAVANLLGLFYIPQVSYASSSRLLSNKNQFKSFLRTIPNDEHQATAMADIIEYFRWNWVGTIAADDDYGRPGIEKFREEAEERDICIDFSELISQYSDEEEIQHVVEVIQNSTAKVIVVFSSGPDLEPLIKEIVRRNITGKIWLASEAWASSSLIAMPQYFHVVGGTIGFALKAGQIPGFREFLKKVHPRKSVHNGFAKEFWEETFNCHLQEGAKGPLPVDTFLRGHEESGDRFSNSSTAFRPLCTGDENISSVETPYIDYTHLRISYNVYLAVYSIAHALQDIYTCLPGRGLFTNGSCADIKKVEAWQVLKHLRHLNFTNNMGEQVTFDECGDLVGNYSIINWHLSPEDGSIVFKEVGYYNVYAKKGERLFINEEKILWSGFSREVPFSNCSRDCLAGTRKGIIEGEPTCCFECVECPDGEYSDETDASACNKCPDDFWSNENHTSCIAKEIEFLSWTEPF
Assay: Phenylalanine replacement of TNCA bound to hCaSR-ECD, LC-ESI-MS
Format: binding
Settings: overnight, 838 at 0 mM
Method: Considering CaSR ligand is tightly bound with hCaSR-ECD, it is conceivable that hCaSR-ECD has to be denatured to release CaSR ligand. To extract CaSR ligand, 50 μL of purified hCaSR-ECD (10 mg/mL) was mixed with 120 μL acetonitrile and vortexed. After high speed centrifugation, 10 μL of the CaSR ligand extract was injected onto a reverse-phase ACQUITY UPLC BEH C18 column (2.1 mm×100 mm, 1.7-μm particle size; Waters). Column temperature was maintained at 40° C. The flow rate was 0.3 mL/min with starting conditions at 99% solvent A (water+0.1% formic acid) and 1% solvent B (acetonitrile). The 15-min gradient profile for elution was as follows: starting at 1% solvent B and hold for 1 min, then ramping to 98% B at 10 min, hold at 98% B to 12 min, at 12.01 min return to 99% A/1% B and maintain until 15 min. The samples were analyzed by using a Waters Xevo G2-XS QToF LC-MS interfaced to a Waters Acquity UPLC system. […] Fragmentation, formula, and abundances were analyzed with Waters MassLynx Software.
A phenylalanine replacement experiment was carried out by mixing purified hCaSR-ECD protein (0.26 mg/mL) with phenylalanine (final concentrations are 0, 50 and 150 mM, respectively). […] The protein samples were adjusted to the same concentration using SEC buffer and analyzed by LC-ESI-MS.

## N[C@@H](Cc1ccccc1)C(=O)O [Phe, phenylalanine]
50 mM phenylalanine
  area under the MS peak of TNCA remaining bound to hCaSR-ECD: 180
150 mM phenylalanine
  area under the MS peak of TNCA remaining bound to hCaSR-ECD: 76

Source: patent US10639299B2, “Calcium sensing receptors, ligands, compositions, and methods of use” (Georgia State University Research Foundation, Inc., priority 2016, dated 2020)
